Values of other authors, collected in US11389451B2, “Metolazone emulsion formulation” (ACADEMIC PHARMACEUTICALS, INC., priority 2017, dated 2022).

Conditions: background statement

solubility in lipids: moderate to high | solubility in water: low
SMILES: Cc1ccccc1N1C(=O)c2cc(S(N)(=O)=O)c(Cl)cc2NC1C (centres unmarked) [Metolazone]
